{
  "source": "patent EP0017543B1",
  "about": "“Benzothiazole derivatives, process for their preparation and their therapeutical uses” (Albert ROLLAND S.A. Société dite, priority 1979, dated 1980)",
  "key": {"[1]": {"test_system": "agrégation plaquettaire provoquée in vitro par l'ADP", "test": "ADP-induced platelet aggregation in vitro in platelet-rich rat plasma", "format": "cell-based", "conditions": "plasma de rat enrichi en plaquettes"}, "[2]": {"test_system": "torsions à la phénylbenzoquinone chez la souris", "test": "Phenylbenzoquinone writhing test (analgesic activity)", "format": "in vivo", "conditions": "dose de 12,5 mg/kg, 24 heures après son administration", "description": "L'activité analgésique des composés de formule 1 a été mise en évidence dans le test des torsions à la phénylbenzoquinone chez la souris. Ainsi, l'acide de formule 1 (racémique) possède dans ce test une DE50 de 3 à 6 mg/kg P.O. Cette activité analgésique est prolongée dans le temps, une dose de 12,5 mg/kg de ce composé entraînant encore une analgésie de 42%, 24 heures après son administration."}, "[3]": {"test_system": "biosynthèse des prostaglandines", "test": "Protection against arachidonic acid toxicity (lethal dose) in mice", "format": "in vivo, souris"}, "[4]": {"test": "Solubility in water", "format": "physicochemical", "description": "Le sel de pyrrolidine de l'acide (phényl-2 benzothiazolyl-6)-2 propionique est préparé par action d'I g d'amine sur 4 g d'acide en solution dans le méthanol. Il fond à 142°C."}},
  "data": [
    {"compound": "CC(C(=O)O)c1ccc2nc(-c3ccccc3)sc2c1", "note": "(racemic)", "values": [
      {"measurement": "concentration active par rapport à l'acide acétyl salicylique", "setting": "[1]", "result": "actif à une concentration dix fois plus faible que l'acide acétyl salicylique"}
    ]},
    {"compound": "CC(C(=O)O)c1ccc2nc(-c3ccccc3)sc2c1", "note": "(racemic) [Exemple 1, acide (phényl-2 benzothiazolyl-6)-2 propionique]", "values": [
      {"measurement": "analgésie", "setting": "[2]", "result": 42, "unit": "%"}
    ]},
    {"compound": "CC(C(=O)O)c1ccc2nc(-c3ccccc3)sc2c1", "note": "(racemic) [Exemple 3, (phényl-2 benzothiazolyl-6)-2 propionate de sodium]", "values": [
      {"measurement": "activité contre la toxicité de l'acide arachidonique", "setting": "[3]; voie intraveineuse, same doses (0,5 mg/kg)", "result": "actifs aux mêmes doses"},
      {"measurement": "solubilité dans l'eau", "setting": "[4]", "result": "soluble dans l'eau"}
    ]},
    {"compound": "CC(C(=O)O)c1ccc2nc(-c3ccccc3)sc2c1", "note": "(racemic) [Exemple 4, sel de pyrrolidine de l'acide (phényl-2 benzothiazolyl-6)-2 propionique]", "values": [
      {"measurement": "solubilité dans l'eau", "setting": "[4]", "result": "soluble dans l'eau"}
    ]},
    {"compound": "CC(C(=O)O)c1ccc2nc(-c3ccccc3)sc2c1", "note": "(single isomer, unassigned) [Exemple 8a, acide (phényl-2 benzothiazolyl-6)-2 propionique]", "values": [
      {"measurement": "activité contre la toxicité de l'acide arachidonique, comparison of enantiomers and racemate", "setting": "[3]; route not stated for the comparison", "result": "activité comparable à celle du racémique (exemple 1), et supérieure à celle de son homologue lévogyre"}
    ]}
  ]
}
